According to US11795177B2, “Substituted quinoline analogs as aldehyde dehydrogenase 1A1 (ALDH1A1) inhibitors” (THE UNITED STATES OF AMERICA, AS REPRESENTED BY THE …, priority 2017, dated 2023):

Tests used:
ALDH1A1 enzyme = target: T1, ALDH1A1 enzyme (Homo sapiens, UniProt P00352); experiment: ALDH1A1 enzymatic assay (in vitro); assay type: biochemical; settings: ALDH1A1 enzyme 20 nM, NAD+ 1 mM, propionaldehyde 80 μM; read-out: ALDH1A1 IC50
T1 sequence (P00352 1-501): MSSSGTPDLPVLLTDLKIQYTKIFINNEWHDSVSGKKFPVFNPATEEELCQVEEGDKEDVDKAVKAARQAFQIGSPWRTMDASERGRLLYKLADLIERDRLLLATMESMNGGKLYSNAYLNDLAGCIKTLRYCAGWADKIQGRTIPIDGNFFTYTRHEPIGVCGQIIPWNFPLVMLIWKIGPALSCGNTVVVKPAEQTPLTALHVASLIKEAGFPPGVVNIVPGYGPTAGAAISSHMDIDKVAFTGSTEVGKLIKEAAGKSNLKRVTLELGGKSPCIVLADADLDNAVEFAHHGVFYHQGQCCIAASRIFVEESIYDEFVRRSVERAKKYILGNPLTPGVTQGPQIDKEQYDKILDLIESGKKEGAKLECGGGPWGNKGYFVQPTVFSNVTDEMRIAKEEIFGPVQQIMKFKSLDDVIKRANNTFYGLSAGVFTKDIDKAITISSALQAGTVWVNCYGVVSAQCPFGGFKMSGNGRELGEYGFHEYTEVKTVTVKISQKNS
Procedure, shortened: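 ALDH1A1 (20 nM final) in 100 mM HEPES pH 7.5, 0.01% Tween 20 was preincubated 15 min at RT with compound (968 pM–57.2 μM final), then started with 1 mM NAD+ and 80 μM propionaldehyde. NADH fluorescence (ex 340/em 450 nm) followed kinetically for 10 min; change normalized to no-inhibitor and no-enzyme controls for percent inhibition and curve fitting.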

MIA PaCa-2 cells = experiment: MIA PaCa2 cell-based assay (1,536-well high-content imaging ALDEFLUOR assay); set-up: species or system human; settings: Homo sapiens, 0.5 h, ALDEFLUOR BAAA substrate 500 nM, 30 minutes
Procedure, shortened: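 MIA PaCa-2 cells (1,000/well), plated overnight, given BAAA substrate (500 nM) plus Hoechst 33342 (0.5 nM), then compound (16-point, 1.4 nM–47.8 μM final; 0.5% DMSO). After 30 min at 37° C, ALDH activity imaged by high-content microscopy as BAA-retaining (FITC) cells versus Hoechst-stained nuclei.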

Compound | IC50 (ALDH1A1 enzyme) [nM] | IC50 (MIA PaCa-2 cells) [nM]
CS(=O)(=O)N1CCN(C(=O)c2cnc3ccc(F)cc3c2N2CCC3(CCOC3=O)CC2)CC1 [Example 249, 8-(6-fluoro-3-(4-(methylsulfonyl)piperazine-1-carbonyl)quinolin-4-yl)-2-oxa-8-azaspiro[4.5]decan-1-one] | < 500 | 1000 to 10000
O=C(c1cnc2ccc(F)cc2c1N1CCC2(CCCC2=O)CC1)N1CCN(C(=O)C2CC2)CC1 [Example 250, 8-(3-(4-(cyclopropanecarbonyl)piperazine-1-carbonyl)-6-fluoroquinolin-4-yl)-8-azaspiro[4.5]decan-1-one] | < 500 | 1000 to 10000
CS(=O)(=O)N1CCN(C(=O)c2cnc3ccc(F)cc3c2N2CCC3(CCCC3=O)CC2)CC1 [Example 251, 8-(6-fluoro-3-(4-(methylsulfonyl)piperazine-1-carbonyl)quinolin-4-yl)-8-azaspiro[4.5]decan-1-one] | < 500 | 500 to 1000
CS(=O)(=O)N1CCN(C(=O)c2cnc3ccc(F)cc3c2N2CCN(S(=O)(=O)C3CC3)CC2)CC1 [Example 252, (4-(4-(cyclopropylsulfonyl)piperazin-1-yl)-6-fluoroquinolin-3-yl)(4-(methylsulfonyl)piperazin-1-yl)methanone] | < 500 | > 10000
CC(O)C1(c2ccccc2)CCN(c2c(C(=O)N3CCN(S(C)(=O)=O)CC3)cnc3ccc(F)cc23)CC1 (stereo not shown) [Example 253, (6-fluoro-4-(4-(1-hydroxyethyl)-4-phenylpiperidin-1-yl)quinolin-3-yl)(4-(methylsulfonyl)piperazin-1-yl)methanone] | < 500 | > 10000
CS(=O)(=O)N1CCN(C(=O)c2cnc3ccc(F)cc3c2N2CCN(S(=O)(=O)c3ccccc3)CC2)CC1 [Example 254, (6-fluoro-4-(4-(phenylsulfonyl)piperazin-1-yl)quinolin-3-yl)(4-(methylsulfonyl)piperazin-1-yl)methanone] | < 500 | < 500
O=C(c1cnc2ccc(F)cc2c1N1CCC(CO)(c2ccccc2)CC1)N1CCN(C(=O)C2CC2)CC1 [Example 255, (4-(cyclopropanecarbonyl)piperazin-1-yl)(6-fluoro-4-(4-(hydroxymethyl)-4-phenylpiperidin-1-yl)quinolin-3-yl)methanone] | 1000 to 10000 | > 10000
CC(C)(O)C1(c2ccccc2)CCN(c2c(C(=O)N3CCN(S(C)(=O)=O)CC3)cnc3ccc(F)cc23)CC1 [Example 258, (6-fluoro-4-(4-(2-hydroxypropan-2-yl)-4-phenylpiperidin-1-yl)quinolin-3-yl)(4-(methylsulfonyl)piperazin-1-yl)methanone] | 500 to 1000 | 1000 to 10000
CC(C)(C#N)c1ccc(-c2c(C(=O)N3CCC(S(C)(=O)=O)CC3)cnc3ccc(F)cc23)cc1 [Example 259, 2-(4-(6-fluoro-3-(4-(methylsulfonyl)piperidine-1-carbonyl)quinolin-4-yl)phenyl)-2-methylpropanenitrile] | < 500 | < 500
CN(C)S(=O)(=O)N1CCN(C(=O)c2cnc3ccc(F)cc3c2-c2ccc(C(C)(C)C#N)cc2)CC1 [Example 261, 4-(4-(4-(2-cyanopropan-2-yl)phenyl)-6-fluoroquinoline-3-carbonyl)-N,N-dimethylpiperazine-1-sulfonamide] | < 500 | < 500
CN(C)C(=O)N1CCN(C(=O)c2cnc3ccc(F)cc3c2-c2ccc(C(C)(C)C#N)cc2)CC1 [Example 263, 4-(4-(4-(2-cyanopropan-2-yl)phenyl)-6-fluoroquinoline-3-carbonyl)-N,N-dimethylpiperazine-1-carboxamide] | < 500 | < 500
CS(=O)(=O)C1CCN(C(=O)c2cnc3ccc(F)cc3c2-c2ccc(C3(C#N)CC3)cc2)CC1 [Example 266, 1-(4-(6-fluoro-3-(4-(methylsulfonyl)piperidine-1-carbonyl)quinolin-4-yl)phenyl)cyclopropanecarbonitrile] | < 500 | < 500
N#CC1(c2ccc(Cl)cc2)CCN(c2c(C(=O)N3CCN(C(=O)C4CC4)CC3)cnc3ccc(F)cc23)CC1 [Example 267, 4-(4-chlorophenyl)-1-(3-(4-(cyclopropanecarbonyl)piperazine-1-carbonyl)-6-fluoroquinolin-4-yl)piperidine-4-carbonitrile] | < 500 | 1000 to 10000
CC(=O)C1(c2ccccc2)CCN(c2c(C(=O)N3CCN(S(=O)(=O)N(C)C)CC3)cnc3ccc(F)cc23)CC1 [Example 268, 4-(4-(4-acetyl-4-phenylpiperidin-1-yl)-6-fluoroquinoline-3-carbonyl)-N,N-dimethylpiperazine-1-sulfonamide] | < 500 | < 500
CS(=O)(=O)C1CCN(C(=O)c2cnc3ccc(F)cc3c2N2CCC(C#N)(c3ccccc3)CC2)CC1 [Example 269, 1-(6-fluoro-3-(4-(methylsulfonyl)piperidine-1-carbonyl)quinolin-4-yl)-4-phenylpiperidine-4-carbonitrile] | < 500 | < 500
CC(=O)C1(c2ccccc2)CCN(c2c(C(=O)N3CCN(C(=O)N(C)C)CC3)cnc3ccc(F)cc23)CC1 [Example 271, 4-(4-(4-acetyl-4-phenylpiperidin-1-yl)-6-fluoroquinoline-3-carbonyl)-N,N-dimethylpiperazine-1-carboxamide] | < 500 | < 500
CC(=O)C1(c2ccccc2)CCN(c2c(C(=O)N3CCC(S(C)(=O)=O)CC3)cnc3ccc(F)cc23)CC1 [Example 273, 1-(1-(6-fluoro-3-(4-(methylsulfonyl)piperidine-1-carbonyl)quinolin-4-yl)-4-phenylpiperidin-4-yl)ethanone] | < 500 | < 500
N#CC1(c2ccccc2F)CCN(c2c(C(=O)N3CCN(C(=O)C4CC4)CC3)cnc3ccc(F)cc23)CC1 [Example 276, 1-(3-(4-(cyclopropanecareonyl)piperazine-1-carbonyl)-6-fluoroquinolin-4-yl)-4-(2-fluorophenyl)piperidine-4-carbonitrile] | < 500 | < 500
Cc1ccc(C2(C#N)CCN(c3c(C(=O)N4CCN(S(C)(=O)=O)CC4)cnc4ccc(F)cc34)CC2)c(F)c1 [Example 277, 1-(6-fluoro-3-(4-(methylsulfonyl)piperazine-1-carbonyl)quinolin-4-yl)-4-(2-fluoro-4-methylphenyl)piperidine-4-carbonitrile] | < 500 | < 500
N#CC1(c2ccc(F)cc2)CCN(c2c(C(=O)N3CCN(C(=O)C4CC4)CC3)cnc3ccc(F)cc23)CC1 [Example 278, 1-(3-(4-(cyclopropanecarbonyl)piperazine-1-carbonyl)-6-fluoroquinolin-4-yl)-4-(4-fluorophenyl)piperidine-4-carbonitrile] | < 500 | < 500
CS(=O)(=O)N1CCN(C(=O)c2cnc3ccc(F)cc3c2-c2ccc(C3(CO)CC3)cc2)CC1 [Example 280, (6-fluoro-4-(4-(1-(hydroxymethyl)cyclopropyl)phenyl)quinolin-3-yl)(4-(methylsulfonyl)piperazin-1-yl)methanone] | < 500 | < 500
CN(C)C(=O)N1CCN(C(=O)c2cnc3ccsc3c2-c2ccc(C3(C#N)CC3)cc2)CC1 [Example 281, 4-(7-(4-(1-cyanocyclopropyl)phenyl)thieno[3,2-b]pyridine-6-carbonyl)-N,N-dimethylpiperazine-1-carboxamide] | < 500 | < 500
CS(=O)(=O)C1CCN(C(=O)c2cnc3ccsc3c2-c2ccc(C3(C#N)CC3)cc2)CC1 [Example 283] | < 500 | < 500
CN(C)S(=O)(=O)N1CCN(C(=O)c2cnc3ccsc3c2-c2ccc(C3(C#N)CC3)cc2)CC1 [Example 284, 4-(7-(4-(1-cyanocyclopropyl)phenyl)thieno[3,2-b]pyridine-6-carbonyl)-N,N-dimethylpiperazine-1-sulfonamide] | < 500 | < 500
CN(C)S(=O)(=O)N1CCN(C(=O)c2cnc3ccsc3c2N2CCC(C#N)(c3ccccc3)CC2)CC1 [Example 287, 4-(7-(4-cyano-4-phenylpiperidin-1-yl)thieno[3,2-b]pyridine-6-carbonyl)-N,N-dimethylpiperazine-1-sulfonamide] | < 500 | < 500
CN(C)C(=O)N1CCN(C(=O)c2cnc3ccsc3c2N2CCC(C#N)(c3ccccc3)CC2)CC1 [Example 289, 4-(7-(4-cyano-4-phenylpiperidin-1-yl)thieno[3,2-b]pyridine-6-carbonyl)-N,N-dimethylpiperazine-1-carboxamide] | < 500 | < 500
